Data published in article PMC8622842, “Absolute Structure Determination and Kv1.5 Ion Channel Inhibition Activities of New Debromoaplysiatoxin Analogues” (Marine Drugs, 2021).
Entries after “also recorded” stand apart in the source; their conditions may differ. Read-outs that look alike come from different tables or passages of the source.

Tests used:
human Kv1.5 channels = target: T1, human Kv1.5 channels (Homo sapiens, UniProt P22460); assay: Kv1.5 current inhibition, whole-cell electrophysiology in LTK cells stably expressing human Kv1.5; type: cell-based; details: for Voltage dependence of Kv1.5 current inhibition: tested potentials -50 mV to 50 mV
T1 construct: expressed in transfected cells
T1 sequence (P22460 whole entry): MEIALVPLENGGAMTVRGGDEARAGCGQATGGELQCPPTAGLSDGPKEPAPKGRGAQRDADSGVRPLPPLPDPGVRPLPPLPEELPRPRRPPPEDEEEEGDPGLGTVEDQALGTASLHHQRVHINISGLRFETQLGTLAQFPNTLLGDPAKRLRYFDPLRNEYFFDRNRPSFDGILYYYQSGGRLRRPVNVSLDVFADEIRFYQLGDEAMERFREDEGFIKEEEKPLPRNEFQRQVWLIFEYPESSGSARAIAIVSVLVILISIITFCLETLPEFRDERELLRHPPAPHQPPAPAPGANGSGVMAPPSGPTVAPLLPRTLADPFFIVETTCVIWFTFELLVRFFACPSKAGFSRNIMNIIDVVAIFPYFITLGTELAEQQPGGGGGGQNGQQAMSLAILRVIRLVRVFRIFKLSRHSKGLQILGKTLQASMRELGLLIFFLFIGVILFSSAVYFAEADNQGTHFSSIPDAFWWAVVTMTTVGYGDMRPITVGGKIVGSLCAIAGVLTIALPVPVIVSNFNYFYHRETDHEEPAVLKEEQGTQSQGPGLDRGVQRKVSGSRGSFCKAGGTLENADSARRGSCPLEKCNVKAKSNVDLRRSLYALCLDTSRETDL
Procedure: For culturing mouse L cells lacking thymidine kinase (LTK) cells stably expressing human Kv1.5 channels (LTK/Kv1.5), 10% fetal bovine serum (FBS), 10,000 U/ml penicillin G and 10 mg/ml streptomycin were added into Dulbecco’s Modified Eagle Media (DMEM). LTK/Kv1.5 cells were cultured in a 37 °C humidified incubator set to 5% CO2. The amount of 100 μg/ml Genetic (G418) was added into the culture media to select transgenic cells. When the cells grew to 75–85% confluence, they were passaged for subsequent electrophysiological records (Supplementary Materials 1.3.1.1).
LTK cells cultured for at least 24 h could be used for currents recording. For Kv1.5 potassium current recording, the recording micropipettes were pulled with a P97 microelectrode puller (Sutter, CA, USA) with a resistance of about 3 MΩ when filling with internal solution containing the following: KCl 140 mM, MgCl2 1 mM, EGTA 5 mM, HEPES 10 mM and MgATP 1 mM (pH was adjusted to 7.25 by KOH). The bath solution contained the following: NaCl 137 mM, KCl 5.4 mM, CaCl2 1.8 mM, MgCl2 1 mM, Glucose 10 mM and HEPES 10 mM (pH was adjusted to 7.4 by NaOH). Kv1.5 currents were recorded at room temperature (22–24 °C) by PulseMaster (Version 2.65, Heka, Lambrecht, Germany) via an EPC-10 USB amplifier (Heka, Lambrecht, Germany). In order to reduce recording errors, cells with seal resistance above 1 GΩ and series resistance that was fully compensated above 80% were used. Leak compensation was used to compensate the leak current and to subtract the capacitive artifacts (Supplementary Materials 1.3.1.2).
1.3.1. Ion Channel Experiment
For culturing mouse L cells lacking thymidine kinase (Ltk−) cells stably expressing human Kv1.5 channels (Ltk−/Kv1.5), 10% fetal bovine serum (FBS), 10,000 U/ml penicillin G and 10 mg/ml streptomycin were added into Dulbecco's Modified Eagle Media (DMEM). Ltk−/Kv1.5 cells were cultured in a 37 °C humidified incubator set to 5% CO2. 100 μg/ml Genetic (G418) was added into the culture media to select transgenic cells. When the cells grew to 75% - 85% confluent, they were passaged for subsequent electrophysiological records.μ1.3.1.2.
1.3.1.2. Electrophysiology
Ltk− cells cultured for at least 24 h could be used for currents recording. For Kv1.5 potassium currents recording, the recording micropipettes were pulled with a P97 microelectrode puller (Sutter, CA, USA) with a resistance about 3 MΩ when filling with internal solution containing: KCl 140 mM, MgCl2 1 mM, EGTA 5 mM, HEPES 10 mM, MgATP 1 mM (pH was adjusted to 7.25 by KOH). The bath solution contained: NaCl 137 mM, KCl 5.4 mM, CaCl2 1.8 mM, MgCl2 1 mM, Glucose 10 mM, HEPES 10 mM (pH was adjusted to 7.4 by NaOH). Kv1.5 currents were recorded at room temperature (22–24°C) by PulseMaster (Version 2.65, Heka, Lambrecht, Germany) via an EPC-10 USB amplifier (Heka, Lambrecht, Germany).
To reduce recording errors, cells with seal resistance above 1 GΩ and series resistance was fully compensated above 80% were used. Leak compensation was used to compensate the leak current and to subtract the capacitive artifacts
Cells with amplitudes above 1 nA, series resistance less than 10 MΩ and leak compensation below 200 pA were chosen for data analysis. Kv1.5 currents were evoked by a 300 ms depolarizing pulse from -50 mV to 50 mv in 20 mV increments from a holding potential of -70 mV. The current amplitude at the end of 300-ms pulse was measured. The IC50 and Hill coefficient (n) was obtained by fitting concentration dependence data to the equation of I (%) = 1/{1+(IC50/[D]) n} in which I (%) is the percent inhibition of current (I (%) = [1-Idrug/Icontrol] ×100) at test potential and [D] represents various drug concentrations . The measured error at the end of relative short 300 ms pulse was limited and the fitted IC 50 was acceptable. For steady-state activation curves were fitted with the Boltzmann function: G/Gmax =1/{1+exp[−(V-V1/2)/k]}, where V is a membrane potential and the Nernst K + equilibrium potential EK was calculated as−80 mV. G was […]

Artemia salina = assay: whole plant or invertebrate; type: in vivo; details: for Effect on brine shrimp A. salina: at 30 µM
Procedure: Brine shrimp A. salina is an important model organism for ecosystems, and because of its high sensitivity and easy availability, it can be used in laboratory settings to study toxic effects and to provide safe results. A. salina or brine shrimp cysts were cultivated in 3.2% of saline water. After aeration with normal saline, cysts were placed at temperature for 24 h and then cultured. For toxicity screening, hatched larvae were collected and introduced in saline water. Add 0.9% brine and 30 larvae with good activity to each well to produce a 96-well test culture plate. New compounds of 0.1 µM, 1 µM, 10 µM and 30 µM and DAT were added to the experimental culture plate, respectively. Dimethyl sulfoxide (Aladdin, Shanghai, China) and dichloromethane (Aladdin, Shanghai, China) were added as blank control and positive control. The survival rate of A. salina was calculated after 24 h treatment at 25 °C.
Commercially available Artemia salina (A. salina) or brine shrimp cysts were purchased and cultivated in 3.2% of saline water. Before cultivation, the saline was aerated, and then cysts were kept at room temperature for 24 h. For toxicity screening, hatched larvae were collected and introduced in saline water. Add saline water and equivalent larvae in per well of 96 wells to make test culture plate. Aplysiatoxins with 0.1 μM, 1 μM, 10 μM, 30 μM was added to test culture plate, while DMSO and dichloromethane were added as blank control test and positive control separately. After 24 h in 25 °C, the percent of survival of A. salina was calculated.
Table S1.3.2.1. Effect of compounds 1-4 to Artemia salina (A. salina) . A. salina were treated with indicated concentration (0.1 µM, 1 µM, 10 µM, 30 µM) of dichloromethane (DCM), debromoaplysiatoxin (DAT), oscillatoxin J, oscillatoxin K, oscillatoxin L, oscillatoxin M, Methylenechloride, Control for 24 h. The percentage of A. salina with all different kinds of […]
Compounds Percentage of Survival of Artemia salina after 24 h (μM) […]
Figure S1.3.2.1. Effect of debromoaplysiatoxin to Artemia salina (A. salina). […]
(also on this page, place not known: compound s , , , , J K L M . USA) -1.5 -1.0 -0.5 0.0 0 20 40 60 80 100 LogCon.
(1 picture or pasted object on this page, not shown here)

Kv1.2 channel = tested on: Kv1.2 channel; design: method as in PMID 18313714; details: read-out: IC50 against Kv1.2 channel; cited from earlier work
phosphor PKCδ = tested on: phosphor PKCδ; design: method as in PMID 35521179; details: HepG2, 10 µM; cited from earlier work

## CO[C@@H](CC[C@H](C)[C@H]1O[C@@]23C[C@H](OC(=O)C[C@H]([C@@H](C)O)OC(=O)/C=C(\O2)C(C)=CC3(C)C)[C@@H]1C)c1cccc(O)c1 [Compound 1, oscillatoxin J]
Human Kv1.5 channels; current at end of 300 ms pulse at 50 mV, 0.3-10 µM, mean ± SEM of 3 to 5 measurements, read-out: IC50 of Kv1.5 current inhibition
  IC50: 2610 ± 910 nM
Human Kv1.5 channels
  Voltage dependence of Kv1.5 current inhibition: voltage dependently inhibited
Artemia salina; 0.1 µM, 24 h
  Percentage of Survival of Artemia salina after 24 h: 96.62±0.37%
Artemia salina; 1 µM, 24 h
  Percentage of Survival of Artemia salina after 24 h: 95.87±0.7%
Artemia salina; 10 µM, 24 h
  Percentage of Survival of Artemia salina after 24 h: 95±1.52%
Artemia salina; 30 µM, 24 h
  Percentage of Survival of Artemia salina after 24 h: 93.61±5.11%
Artemia salina
  Effect on brine shrimp A. salina: no apparent effect

## CO[C@@H](CC[C@H](C)[C@H]1O[C@@]23C[C@H](OC(=O)C[C@H]([C@@H](C)O)OC(=O)C[C@](O)(O2)[C@@](C)(O)CC3(C)C)[C@@H]1C)c1cccc(O)c1 [Compound 3, oscillatoxin L]
Human Kv1.5 channels
  IC50: > 10000 nM
Human Kv1.5 channels; at 10 µM
  Effect on Kv1.5: minimum effects; also recorded: no apparent Kv1.5 inhibition activity
Artemia salina; 0.1 µM, 24 h
  Percentage of Survival of Artemia salina after 24 h: 97.74±1.60%
Artemia salina; 1 µM, 24 h
  Percentage of Survival of Artemia salina after 24 h: 98.89±1.57%
Artemia salina; 10 µM, 24 h
  Percentage of Survival of Artemia salina after 24 h: 96.37±0.28%
Artemia salina; 30 µM, 24 h
  Percentage of Survival of Artemia salina after 24 h: 73.38±9.64%
Artemia salina
  Effect on brine shrimp A. salina: no apparent effect

## CO[C@@H](CC[C@H](C)[C@H]1O[C@]23C[C@H](OC(=O)C[C@H]([C@@H](C)O)OC(=O)[C@H](O)C(=C(C)CC2(C)C)O3)[C@@H]1C)c1cccc(O)c1 [Compound 2, oscillatoxin K]
Human Kv1.5 channels
  IC50: 3860 ± 1030 nM
  Voltage dependence of Kv1.5 current inhibition: voltage dependently inhibited
Artemia salina; 0.1 µM, 24 h
  Percentage of Survival of Artemia salina after 24 h: 96.63±0.05%
Artemia salina; 1 µM, 24 h
  Percentage of Survival of Artemia salina after 24 h: 96.05±0.07%
Artemia salina; 10 µM, 24 h
  Percentage of Survival of Artemia salina after 24 h: 95.23±0.19%
Artemia salina; 30 µM, 24 h
  Percentage of Survival of Artemia salina after 24 h: 89.97±7.12%
Artemia salina
  Effect on brine shrimp A. salina: no apparent effect

## C=CC/C=C\C=C/[C@H]1O[C@H]2C[C@H]3O[C@H]4CC[C@H]5O[C@H]6C[C@@]7(C)O[C@@]8(C)[C@@H](O)C[C@H](CCCO)O[C@@H]8C[C@@H]7O[C@@H]6C[C@@H]5O[C@]4(C)C[C@]3(C)O[C@@H]2C=C[C@]1(C)O [Gambierol]
Kv1.2 channel
  IC50: 34.5 ± 1.5 nM

## ClCCl [Methylenechloride, dichloromethane, reference compound]
Artemia salina; 0.1 µM, 24 h
  Percentage of Survival of Artemia salina after 24 h: 0%
Artemia salina; 1 µM, 24 h
  Percentage of Survival of Artemia salina after 24 h: 0%
Artemia salina; 10 µM, 24 h
  Percentage of Survival of Artemia salina after 24 h: 0%
Artemia salina; 30 µM, 24 h
  Percentage of Survival of Artemia salina after 24 h: 0%

## COC(CCC(C)C1OC23CC(OC(=O)CC(C(C)O)OC(=O)CC(C)(O2)C(=O)CC3(C)C)C1C)c1cccc(O)c1 (stereo not shown) [Compound 4, oscillatoxin M]
Human Kv1.5 channels
  IC50: 3790 ± 1010 nM
  Voltage dependence of Kv1.5 current inhibition: voltage dependently inhibited
Artemia salina; 0.1 µM, 24 h
  Percentage of Survival of Artemia salina after 24 h: 95.13±1.09%
Artemia salina; 1 µM, 24 h
  Percentage of Survival of Artemia salina after 24 h: 96.29±0.11%
Artemia salina; 10 µM, 24 h
  Percentage of Survival of Artemia salina after 24 h: 96.15±0.12%
Artemia salina; 30 µM, 24 h
  Percentage of Survival of Artemia salina after 24 h: 82.27±6.13%
Artemia salina
  Effect on brine shrimp A. salina: no apparent effect

## CO[C@@H](CC[C@H](C)[C@H]1O[C@@]23C[C@H](OC(=O)C[C@H]([C@@H](C)O)OC(=O)C[C@](O)(O2)[C@H](C)CC3(C)C)[C@@H]1C)c1cccc(O)c1 [Compound 5, debromoaplysiatoxin]
Artemia salina; 0.1 µM, 24 h
  Percentage of Survival of Artemia salina after 24 h: 87.19±0.74%
Artemia salina; 1 µM, 24 h
  Percentage of Survival of Artemia salina after 24 h: 2.96±2.1%
Artemia salina; 10 µM, 24 h
  Percentage of Survival of Artemia salina after 24 h: 0%
Artemia salina; 30 µM, 24 h
  Percentage of Survival of Artemia salina after 24 h: 0%
Artemia salina; 24 h
  Concentration at which survival of Artemia salina began to be affected: 100 nM
Artemia salina; Artemia salina, 0.05-0.5 µM, read-out: IC50 of brine shrimp toxicity (survival of A. salina)
  IC50: 340 ± 36 nM
Phosphor PKCδ
  Expression of phosphor PKCδ: strongly upregulating
